pIC50: −log10 of the molar value. Where two headings read alike, the source gives them in different places.
Key:
[1] = test system: P. falciparum female gametocytes; test: P. falciparum Dual Gamete Formation Assay (PfDGFA), female readout (Pfs25-positive female gametes); type: cell-based, Plasmodium falciparum NF54; conditions: for Selectivity ratio F: HepG2 Tox50 versus female IC50; for Average inhibition female (%) / % inhibition female (individual replicates) R1 / % inhibition female (individual replicates) R3 / % inhibition female (individual replicates) R4 / inhibition at 2 µM: 24h preincubation with gametocytes; for pIC50: PfDGFA, 24 h incubation with gametocytes before induction, female gamete readout, read-out: Female IC50; for HitlevelF: number of replicates with >50% inhibition in the female readout
Summary of the method: (§1)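 First, day-14 P. falciparum NF54 gametocytes receive compound for 24 h at 37°C in 1% O2/3% CO2. Next, ookinete medium with Cy3 anti-Pfs25 triggers gametogenesis at 28°C and male exflagellation is imaged. Finally, after 24 h in the dark, Cy3-labelled females are imaged.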

[2] = test system: P. falciparum male gametocytes; test: P. falciparum Dual Gamete Formation Assay (PfDGFA), male readout (exflagellation); type: cell-based, Plasmodium falciparum NF54; conditions: for Selectivity Ratio M: HepG2 Tox50 versus male IC50; for Average inhibition male (%) / % inhibition male (individual replicates) R1 / % inhibition male (individual replicates) R3 / % inhibition male (individual replicates) R4 / inhibition at 2 µM: 24h preincubation with gametocytes; for pIC50: PfDGFA, 24 h incubation with gametocytes before induction, exflagellation readout, read-out: Male IC50; for HitlevelM: number of replicates with >50% inhibition in the male readout
Summary of the method: as §1

[3] = test system: HepG2 cells; test: HepG2 cytotoxicity counter-screen; conditions: cytotoxic activity against HepG2 cells
[4] = PfDGFA at 2µM, average of replicates
[5] = Plasmodium falciparum, 2µM, average of replicates, read-out: Average inhibition female (%)
[6] = Plasmodium falciparum, 2µM, replicate R1, read-out: % inhibition female (individual replicates) R1
[7] = Plasmodium falciparum, 2µM, replicate R2, read-out: % inhibition female (individual replicates) R2
[8] = Plasmodium falciparum, 2µM, replicate R3, read-out: % inhibition female (individual replicates) R3
[9] = Plasmodium falciparum, 2µM, replicate R4, read-out: % inhibition female (individual replicates) R4
[10] = Plasmodium falciparum, 2µM, average of replicates, read-out: Average inhibition male (%)
[11] = Plasmodium falciparum, 2µM, replicate R1, read-out: % inhibition male (individual replicates) R1
[12] = Plasmodium falciparum, 2µM, replicate R2, read-out: % inhibition male (individual replicates) R2
[13] = Plasmodium falciparum, 2µM, replicate R3, read-out: % inhibition male (individual replicates) R3
[14] = Plasmodium falciparum, 2µM, replicate R4, read-out: % inhibition male (individual replicates) R4
[15] = Plasmodium falciparum, PfDGFA at 2µM, average of replicates, read-out: Average inhibition female (%)
[16] = Plasmodium falciparum, PfDGFA at 2µM, replicate R1, read-out: % inhibition female (individual replicates) R1
[17] = Plasmodium falciparum, PfDGFA at 2µM, replicate R2, read-out: % inhibition female (individual replicates) R2
[18] = Plasmodium falciparum, PfDGFA at 2µM, replicate R3, read-out: % inhibition female (individual replicates) R3
[19] = Plasmodium falciparum, PfDGFA at 2µM, replicate R4, read-out: % inhibition female (individual replicates) R4
[20] = Plasmodium falciparum, PfDGFA at 2µM, average of replicates, read-out: Average inhibition male (%)
[21] = Plasmodium falciparum, PfDGFA at 2µM, replicate R1, read-out: % inhibition male (individual replicates) R1
[22] = Plasmodium falciparum, PfDGFA at 2µM, replicate R2, read-out: % inhibition male (individual replicates) R2
[23] = Plasmodium falciparum, PfDGFA at 2µM, replicate R3, read-out: % inhibition male (individual replicates) R3
[24] = Plasmodium falciparum, PfDGFA at 2µM, replicate R4, read-out: % inhibition male (individual replicates) R4

pIC50 ([1]; Plasmodium falciparum) | pIC50 ([2]; Plasmodium falciparum) | SMILES | Selectivity ratio F [1] | HitlevelF ([1]; 2µM) | Selectivity Ratio M [2] | HitlevelM ([2]; 2µM) | Tox50 [3] | inhibition at 2 µM [1, 5] | inhibition at 2 µM [1, 6] | inhibition at 2 µM [1, 7] | inhibition at 2 µM [1, 8] | inhibition at 2 µM [1, 9] | inhibition at 2 µM [2, 10] | inhibition at 2 µM [2, 11] | inhibition at 2 µM [2, 12] | inhibition at 2 µM [2, 13] | inhibition at 2 µM [2, 14] | also measured
 |  | CN1CCC(N2CCN(Cc3cccc(-c4ccc(-c5nc6cc(C(F)(F)F)ccc6[nH]5)cc4)c3)CC2)CC1.O=C(O)C(F)(F)F [TCMDC-133842] | 1.63 | 1 | 3.46 | 4 | 5.34 µM |  |  |  |  |  |  |  |  |  |  | Average inhibition female (%) [1, 4]: 30.2%; % inhibition female (individual replicates) R1 ([1]; PfDGFA at 2µM, replicate R1): 16.8%; % inhibition female (individual replicates) R3 ([1]; PfDGFA at 2µM, replicate R3): 18.6%; % inhibition female (individual replicates) R4 ([1]; PfDGFA at 2µM, replicate R4): 31.1%; pIC50 [1]: 5.49; Average inhibition male (%) [2, 4]: 86.6%; % inhibition male (individual replicates) R1 ([2]; PfDGFA at 2µM, replicate R1): 86.4%; % inhibition male (individual replicates) R3 ([2]; PfDGFA at 2µM, replicate R3): 71.8%; % inhibition male (individual replicates) R4 ([2]; PfDGFA at 2µM, replicate R4): 92.9%; pIC50 [2]: 5.81
 |  | Fc1ccc2[nH]c(-c3ccc(-c4ccc(CN5CCC(CCN6CCCCC6)CC5)cc4)s3)nc2c1.O=C(O)C(F)(F)F [TCMDC-133932] | 1.07 | 1 | 3.55 | 4 | 4.83 µM |  |  |  |  |  |  |  |  |  |  | Average inhibition female (%) [1, 4]: 38.7%; % inhibition female (individual replicates) R1 ([1]; PfDGFA at 2µM, replicate R1): 37.3%; % inhibition female (individual replicates) R3 ([1]; PfDGFA at 2µM, replicate R3): 32.0%; % inhibition female (individual replicates) R4 ([1]; PfDGFA at 2µM, replicate R4): 25.9%; pIC50 [1]: 5.35; Average inhibition male (%) [2, 4]: 85.6%; % inhibition male (individual replicates) R1 ([2]; PfDGFA at 2µM, replicate R1): 90.7%; % inhibition male (individual replicates) R3 ([2]; PfDGFA at 2µM, replicate R3): 68.9%; % inhibition male (individual replicates) R4 ([2]; PfDGFA at 2µM, replicate R4): 86.9%; pIC50 [2]: 5.87
< 5.00 | 6.33 | Cl.NC(=O)c1ccccc1Nc1nc(Nc2cccc(N3CCN(CCO)CC3)c2)ncc1Cl [TCMDC-134114] | 1.31 |  | 28.08 |  | 13.07 µM | 4.2% | 11.2% | 7.4% | -5% | 3.4% | 96.1% | 97.9% | 97.4% | 96.2% | 92.9% | 
5.13 | 7.40 | Cc1cc(Nc2ncc(C#N)c(Nc3ccccc3C(N)=O)n2)ccc1N1CCN(C)CC1.Cl [TCMDC-134115] | 0.14 |  | 28.49 |  | 1.03 µM | -14.3% | -7.3% | -13.1% | -26.9% | -10% | 96.2% | 97.3% | 97.1% | 88.6% | 102% | 
5.04 | 7.52 | CN1CCN(c2ccc(Nc3ncc(C#N)c(Nc4ccccc4C(N)=O)n3)cc2)CC1.Cl [TCMDC-134116] | 0.4 |  | 137.11 |  | 3.71 µM | -1.7% | 7.5% | 3% | -11.3% | -6.1% | 100% | 98.7% | 101% | 97.3% | 104% | 
< 5.00 | 7.00 | COc1ccc(Nc2ncc(C#N)c(Nc3ccccc3C(N)=O)n2)cc1N1CCN(C)CC1.Cl [TCMDC-134117] | 0.96 |  | 100.74 |  | 9.58 µM | -4.3% | -4.1% | -6.5% | -13.1% | 6.5% | 97.4% | 98.2% | 100% | 93.5% | 98% | 
< 5.00 | 6.60 | CNC(=O)c1ccccc1Nc1nc(Nc2ccc(N3CCN(C)CC3)nc2)ncc1C.Cl [TCMDC-134123] | 0.34 |  | 14.02 |  | 3.44 µM | 0.025% | -2.2% | -9.9% | 9.7% | 2.5% | 96.1% | 93.9% | 95.8% |  | 98.7% | 
< 5.00 | 6.74 | CNC(=O)c1ccccc1Nc1nc(Nc2ccc(N3CCOCC3)cc2)ncc1Cl.Cl [TCMDC-134144] | 0.08 | 0 | 4.53 | 4 | 0.82 µM |  |  |  |  |  |  |  |  |  |  | inhibition at 2 µM [1, 15]: 8.6%; inhibition at 2 µM [1, 16]: 12.4%; inhibition at 2 µM [1, 17]: 10.5%; inhibition at 2 µM [1, 18]: 10.7%; inhibition at 2 µM [1, 19]: 0.76%; inhibition at 2 µM [2, 20]: 88.6%; inhibition at 2 µM [2, 21]: 93.6%; inhibition at 2 µM [2, 22]: 91.9%; inhibition at 2 µM [2, 23]: 82.6%; inhibition at 2 µM [2, 24]: 86.2%
< 5.00 | 6.40 | COc1ccc(Nc2ncc(Cl)c(Nc3cccnc3C(N)=O)n2)cc1N1CCN(C)CC1.Cl [TCMDC-134163] | 0.3 | 0 | 7.51 | 4 | 2.98 µM |  |  |  |  |  |  |  |  |  |  | inhibition at 2 µM [1, 15]: -4.7%; inhibition at 2 µM [1, 16]: 1.7%; inhibition at 2 µM [1, 17]: -23.4%; inhibition at 2 µM [1, 18]: -4.2%; inhibition at 2 µM [1, 19]: 7%; inhibition at 2 µM [2, 20]: 79.9%; inhibition at 2 µM [2, 21]: 77.1%; inhibition at 2 µM [2, 22]: 88.9%; inhibition at 2 µM [2, 23]: 73.4%; inhibition at 2 µM [2, 24]: 80.2%
5.26 | 6.34 | CN1CCN(c2ccc(Nc3ncc(Cl)c(Nc4cccnc4C(N)=O)n3)cc2)CC1.Cl [TCMDC-134164] | 1.15 |  | 13.8 |  | 6.29 µM | -2.7% | -3.8% | 5.1% | -16.9% | 4.9% | 93.6% | 95.4% | 93.6% | 90.2% | 95.2% | 

SMILES | pIC50 ([1]; Plasmodium falciparum) | pIC50 ([2]; Plasmodium falciparum) | Selectivity ratio F [1] | HitlevelF ([1]; 2µM) | Selectivity Ratio M [2] | HitlevelM ([2]; 2µM) | Tox50 [3] | inhibition at 2 µM [1, 5] | inhibition at 2 µM [1, 6] | inhibition at 2 µM [1, 7] | inhibition at 2 µM [1, 8] | inhibition at 2 µM [1, 9] | inhibition at 2 µM [2, 10] | inhibition at 2 µM [2, 11] | inhibition at 2 µM [2, 12] | inhibition at 2 µM [2, 13] | inhibition at 2 µM [2, 14] | also measured
CN1CCC(NCc2ccc(-c3cnc(NCc4ccccc4)nc3)cc2)CC1.O=C(O)C(F)(F)F [TCMDC-134120] | 5.18 | 6.02 | 1.69 | 1 | 11.62 | 4 | 11.1 µM |  |  |  |  |  |  |  |  |  |  | inhibition at 2 µM [1, 15]: 24.9%; inhibition at 2 µM [1, 16]: 24.7%; inhibition at 2 µM [1, 17]: 16.8%; inhibition at 2 µM [1, 18]: -0.09%; inhibition at 2 µM [1, 19]: 58.4%; inhibition at 2 µM [2, 20]: 86.5%; inhibition at 2 µM [2, 21]: 83.5%; inhibition at 2 µM [2, 22]: 87.5%; inhibition at 2 µM [2, 23]: 86.1%; inhibition at 2 µM [2, 24]: 88.9%
COc1ccc(Nc2ncc(OC)c(Nc3ccccc3C(N)=O)n2)cc1N1CCN(C)CC1.O=CO [TCMDC-134149] | 5.10 | 6.74 | 0.66 |  | 28.52 |  | 5.24 µM | 13.9% | 17.6% | 16.3% | 5.9% | 15.7% | 94.7% | 95.1% | 101% | 85.5% | 97.6% | 

Source: publication PMC10584170, “Machine learning-based phenotypic imaging to characterise the targetable biology of Plasmodium falciparum male gametocytes for the development of transmission-blocking antimalarials” (PLOS Pathogens, 2023)
